The values below come from ChEMBL document CHEMBL3352247, “Synthesis and antimycobacterial evaluation of 5-alkylamino-N-phenylpyrazine-2-carboxamides” (Bioorg Med Chem, 2015).

Activity calls are given as the source filed them. The calls are words filed in the database; no cut-off is given here.

The test system of test [1] is Staphylococcus aureus. In words: Antibacterial activity against Staphylococcus aureus CCM 4516/08 after 24 to 48 hrs by broth microdilution method. It is filed as functional, organism-based. In general terms: Broth dilution looks for growth in wells or tubes with falling amounts of substance.
For another test, the system named is Escherichia coli. In words: Antibacterial activity against Escherichia coli CCM 4517 after 24 to 48 hrs by broth microdilution method. Format: functional, organism-based.
For the next test, the system named is Pseudomonas aeruginosa. In words: Antibacterial activity against Pseudomonas aeruginosa CCM 1961 after 24 to 48 hrs by broth microdilution method. Format: functional, organism-based.
Test [2] deals with Staphylococcus aureus. In words: Antibacterial activity against methicillin-resistant Staphylococcus aureus H 5996/08 clinical isolate after 24 to 48 hrs by broth microdilution method. Format: functional, organism-based.
Test [3] concerns Staphylococcus epidermidis. In words: Antibacterial activity against Staphylococcus epidermidis H 6966/08 clinical isolate after 24 to 48 hrs by broth microdilution method. It is filed as functional, organism-based.
For the next test, the system named is Enterococcus sp. In words: Antibacterial activity against Enterococcus sp. J 14365/08 clinical isolate after 24 to 48 hrs by broth microdilution method. Format: functional, organism-based.
Test [4] relates to Klebsiella pneumoniae. In words: Antibacterial activity against Klebsiella pneumoniae D 11750/08 clinical isolate after 24 to 48 hrs by broth microdilution method. Format: functional, organism-based.
Test [5] has as its system Klebsiella pneumoniae. In words: Antibacterial activity against ESBL-positive Klebsiella pneumoniae J 14368/08 clinical isolate after 24 to 48 hrs by broth microdilution method. It is filed as functional, organism-based.
The subject of the next test is Candida albicans. In words: Antifungal activity against Candida albicans ATCC 44859 after 24 to 48 hrs by two-fold dilution method. Format: functional, organism-based.
The subject of the next test is Candida tropicalis. In words: Antifungal activity against Candida tropicalis 156 after 24 to 48 hrs by two-fold dilution method. It is filed as functional, organism-based.
A further test concerns Pichia kudriavzevii. In words: Antifungal activity against Candida krusei E28 after 24 to 48 hrs by two-fold dilution method. Format: functional, organism-based.
The next test relates to Nakaseomyces glabratus. In words: Antifungal activity against Candida glabrata 20/I after 24 to 48 hrs by two-fold dilution method. Format: functional, organism-based.
The subject of another test is Trichosporon asahii. In words: Antifungal activity against Trichosporon asahii 1188 after 24 to 48 hrs by two-fold dilution method. It is filed as functional, organism-based.
The subject of another test is Aspergillus fumigatus. In words: Antifungal activity against Aspergillus fumigatus 231 after 24 to 48 hrs by two-fold dilution method. Format: functional, organism-based.
The next test relates to Lichtheimia corymbifera. In words: Antifungal activity against Absidia corymbifera 272 after 24 to 48 hrs by two-fold dilution method. It is filed as functional, organism-based.
For test [6], the system named is Trichophyton mentagrophytes. In words: Antifungal activity against Trichophyton mentagrophytes 445 after 72 to 120 hrs by two-fold dilution method. It is filed as functional, organism-based.
The test system of test [7] is Mycobacterium tuberculosis. In words: Antimycobacterial activity against Mycobacterium tuberculosis H37Rv CNCTC My 331/88 in Middlebrook 7H9 broth after 5 days by AlamarBlue assay. It is filed as functional. To be noted: H37Rv CNCTC My 331/88, 120 h.
Another test concerns Mycobacterium kansasii. In words: Antimycobacterial activity against Mycobacterium kansasii CNCTC My 235/80 in Middlebrook 7H9 broth after 5 days by AlamarBlue assay. It is filed as functional. To be noted: CNCTC My 235/80, 120 h.
The nature of test [8]: Antimycobacterial activity against Mycobacterium avium subsp. avium Chester CNCTC My 80/72 in Middlebrook 7H9 broth after 5 days by AlamarBlue assay. It is filed as functional. As to conditions: Chester CNCTC My 80/72, 120 h. For orientation: The colour change of resazurin is a common sign of viable cells or microbes.

Consider `O=C(Nc1ccccc1)c1cnc(NCCCc2ccccc2)cn1`, for which the outcome (in the test on Staphylococcus aureus [1]; in the test with Escherichia coli; in the test on Pseudomonas aeruginosa; with Staphylococcus aureus [2]; in [3]; in the test with Enterococcus sp.) was inactive. Also, the outcome in the test with Klebsiella pneumoniae [4], with Klebsiella pneumoniae [5], with Candida albicans, in the test on Candida tropicalis, in the test with Pichia kudriavzevii and with Nakaseomyces glabratus was inactive. In addition, the outcome (in the test on Trichosporon asahii; in the test with Aspergillus fumigatus; in the test with Lichtheimia corymbifera; in [6]) was inactive. Also, the results for the MIC (in test [7]; in the test with Mycobacterium kansasii; in test [8]) were 75.2 µM, more than 100 µg/mL and more than 100 µg/mL, respectively.
As for `O=C(Nc1ccccc1)c1cnc(NCCCO)cn1`, the result (with Staphylococcus aureus [1]; in the test on Escherichia coli; in the test on Pseudomonas aeruginosa; with Staphylococcus aureus [2]; in test [3]; in the test with Enterococcus sp.) was inactive. Besides, the outcome with Klebsiella pneumoniae [4], in the test with Klebsiella pneumoniae [5], in the test with Candida albicans, in the test on Candida tropicalis, in the test with Pichia kudriavzevii and in the test with Nakaseomyces glabratus was inactive. In addition, the outcome (in the test with Trichosporon asahii; in the test with Aspergillus fumigatus; in the test with Lichtheimia corymbifera; in test [6]) was inactive. Further, the MIC (in test [7]; in the test with Mycobacterium kansasii; in test [8]) was more than 100 µg/mL throughout.
As for `COCCNc1cnc(C(=O)Nc2ccccc2Cl)cn1`, the result (with Staphylococcus aureus [1]; in the test with Escherichia coli; with Pseudomonas aeruginosa; in the test on Staphylococcus aureus [2]; in test [3]; in the test on Enterococcus sp.) was inactive. In addition, the outcome in the test with Klebsiella pneumoniae [4], with Klebsiella pneumoniae [5], with Candida albicans, with Candida tropicalis, in the test with Pichia kudriavzevii and with Nakaseomyces glabratus was inactive. Moreover, the result (in the test with Trichosporon asahii; in the test with Aspergillus fumigatus; in the test with Lichtheimia corymbifera; in [6]) was inactive. The MIC (in test [7]; with Mycobacterium kansasii; in test [8]) was more than 100 µg/mL throughout.
In the case of `COCCNc1cnc(C(=O)Nc2ccccc2)cn1`, the outcome (in the test with Staphylococcus aureus [1]; in the test with Escherichia coli; in the test on Pseudomonas aeruginosa; with Staphylococcus aureus [2]; in test [3]; in the test with Enterococcus sp.) was inactive. In addition, the result in the test on Klebsiella pneumoniae [4], in the test with Klebsiella pneumoniae [5], with Candida albicans, with Candida tropicalis, in the test with Pichia kudriavzevii and in the test with Nakaseomyces glabratus was inactive. Further, the outcome (in the test with Trichosporon asahii; with Aspergillus fumigatus; with Lichtheimia corymbifera; in test [6]) was inactive. Besides, the MIC in test [7] was 184 µM; against Mycobacterium kansasii, more than 100 µg/mL; in test [8] it was more than 100 µg/mL.
Consider `O=C(Nc1ccccc1Cl)c1cnc(NCCc2ccccc2)cn1`, for which the result (with Staphylococcus aureus [1]; in the test with Escherichia coli; in the test on Pseudomonas aeruginosa; with Staphylococcus aureus [2]; in test [3]; with Enterococcus sp.) was inactive. The result in the test on Klebsiella pneumoniae [4], with Klebsiella pneumoniae [5], with Candida albicans, in the test with Candida tropicalis, in the test on Pichia kudriavzevii and with Nakaseomyces glabratus was inactive. Besides, the result (in the test with Trichosporon asahii; in the test on Aspergillus fumigatus; in the test with Lichtheimia corymbifera; in test [6]) was inactive. Besides, the MIC (in test [7]; in the test on Mycobacterium kansasii; in test [8]) was more than 100 µg/mL throughout.
In the case of `O=C(Nc1ccccc1Cl)c1cnc(NCCCCCO)cn1`, the outcome (with Staphylococcus aureus [1]; in the test with Escherichia coli; in the test with Pseudomonas aeruginosa; in the test with Staphylococcus aureus [2]; in test [3]; in the test with Enterococcus sp.) was inactive. Also, the outcome with Klebsiella pneumoniae [4], with Klebsiella pneumoniae [5], in the test with Candida albicans, in the test with Candida tropicalis, in the test on Pichia kudriavzevii and with Nakaseomyces glabratus was inactive. Further, the result (in the test on Trichosporon asahii; with Aspergillus fumigatus; with Lichtheimia corymbifera; in test [6]) was inactive. Also, the MIC (in test [7]; against Mycobacterium kansasii; in test [8]) was more than 100 µg/mL throughout.
Turning to `O=C(Nc1ccccc1Cl)c1cnc(NCCO)cn1`, the result (in the test with Staphylococcus aureus [1]; in the test with Escherichia coli; with Pseudomonas aeruginosa; in the test on Staphylococcus aureus [2]; in [3]; in the test on Enterococcus sp.) was inactive. Further, the result in the test on Klebsiella pneumoniae [4], in the test with Klebsiella pneumoniae [5], with Candida albicans, in the test with Candida tropicalis, in the test on Pichia kudriavzevii and in the test on Nakaseomyces glabratus was inactive. Further, the result (in the test on Trichosporon asahii; with Aspergillus fumigatus; in the test on Lichtheimia corymbifera; in [6]) was inactive. Further, the MIC (in [7]; with Mycobacterium kansasii; in test [8]) was more than 100 µg/mL in each case.
Regarding `Nc1cnc(C(=O)Nc2ccccc2Cl)cn1`, the outcome (in the test on Staphylococcus aureus [1]; in the test on Escherichia coli; with Pseudomonas aeruginosa; in the test with Staphylococcus aureus [2]; in test [3]; with Enterococcus sp.) was inactive. For the same molecule, the outcome in the test on Klebsiella pneumoniae [4], in the test with Klebsiella pneumoniae [5], in the test with Candida albicans, in the test on Candida tropicalis, with Pichia kudriavzevii and with Nakaseomyces glabratus was inactive. The result (in the test with Trichosporon asahii; with Aspergillus fumigatus; in the test with Lichtheimia corymbifera; in test [6]) was inactive. For the same molecule, the MIC (in [7]; with Mycobacterium kansasii; in test [8]) was more than 100 µg/mL each time.
As for `O=C(Nc1ccccc1)c1cnc(NCCCCCO)cn1`, the outcome (in the test on Staphylococcus aureus [1]; in the test on Escherichia coli; in the test with Pseudomonas aeruginosa; with Staphylococcus aureus [2]; in test [3]; with Enterococcus sp.) was inactive. Besides, the outcome in the test with Klebsiella pneumoniae [4], in the test on Klebsiella pneumoniae [5], in the test with Candida albicans, in the test with Candida tropicalis, in the test with Pichia kudriavzevii and in the test with Nakaseomyces glabratus was inactive. Further, the outcome (with Trichosporon asahii; in the test with Aspergillus fumigatus; with Lichtheimia corymbifera; in [6]) was inactive. The MIC in test [7] is 41.6 µM; in the test on Mycobacterium kansasii, more than 100 µg/mL; in test [8], more than 100 µg/mL.

The term MIC denotes the least concentration at which growth counts as inhibited. A low value points to inhibition by little substance.
